The source of these data is ChEMBL document CHEMBL1139965, “Synthesis and antifungal activities of new fluconazole analogues with azaheterocycle moiety” (2007).

The test system of one assay is Aspergillus fumigatus. Description: Antifungal activity against Aspergillus fumigatus AF980003 by alamar blue assay. The class given is functional. On the technique in general: The colour change of resazurin is a common sign of viable cells or microbes.
The next assay has as its system Candida albicans. As to the kind of experiment: Antifungal activity against Candida albicans CA980001 by alamar blue assay. The class given is functional.

Values after ≈ are worked out from the molar mass of the structure shown.

As usually defined, the MIC is the least concentration at which growth counts as inhibited. As for `OC(Cn1cncn1)(Cn1nc2ccccc2n1)c1ccc(Cl)cc1Cl` (stereo unspecified), the MIC with Aspergillus fumigatus was > 100 µg/mL; in the assay with Candida albicans it was 0.01 µg/mL (≈ 0.0257 µM).
In the case of `O[C@@](Cn1cncn1)(Cn1nnc2ccccc21)c1ccc(F)cc1F`, the MIC is > 100 µg/mL against Aspergillus fumigatus and 0.025 µg/mL (≈ 0.0702 µM) against Candida albicans.
For `O[C@@](Cn1cncn1)(Cn1ncc2ccccc21)c1ccc(F)cc1F` the same measures were 24 µg/mL (≈ 67.5 µM) and 0.019 µg/mL (≈ 0.0535 µM).
For the molecule `O[C@@](Cn1cncn1)(Cn1ncc2ccccc21)c1ccc(Cl)cc1Cl`, the MIC is > 100 µg/mL with Aspergillus fumigatus and 0.0007 µg/mL (≈ 0.0018 µM) in the assay with Candida albicans.
For the molecule `O[C@@](Cn1cncn1)(Cn1nnc2ccccc21)c1ccc(Cl)cc1Cl`, the minimum inhibitory concentration (MIC) is > 100 µg/mL against Aspergillus fumigatus and 0.02 µg/mL (≈ 0.0514 µM) with Candida albicans.
For `O[C@@](Cn1cncn1)(Cn1cnc2ccccc21)c1ccc(F)cc1F` the same measures were > 100 µg/mL and 0.233 µg/mL (≈ 0.656 µM).
As for `O[C@@](Cn1cncn1)(Cn1cnc2ccccc21)c1ccc(Cl)cc1Cl`, the minimal inhibitory concentration (MIC) in the assay on Aspergillus fumigatus is > 100 µg/mL; in the assay on Candida albicans, 0.026 µg/mL (≈ 0.067 µM).
Take `O[C@@](Cn1cncn1)(Cn1ccc2cccnc21)c1ccc(F)cc1F`: the MIC in the assay on Aspergillus fumigatus was found to be 21 µg/mL (≈ 59.1 µM); against Candida albicans, 0.007 µg/mL (≈ 0.0197 µM).
For `O[C@@](Cn1cncn1)(Cn1ccc2cccnc21)c1ccc(Cl)cc1Cl`, the MIC was 29 µg/mL (≈ 74.7 µM) in the assay on Aspergillus fumigatus and 0.0031 µg/mL (≈ 0.00798 µM) against Candida albicans.
For `O[C@](CN1CCc2ccccc21)(Cn1cncn1)c1ccc(Cl)cc1Cl` the same measures were > 100 µg/mL and 2.72 µg/mL (≈ 6.99 µM).
For `O[C@](CNc1ccc2[nH]ccc2c1)(Cn1cncn1)c1ccc(Cl)cc1Cl` the same measures were > 100 µg/mL and 0.026 µg/mL (≈ 0.0646 µM).
For the molecule `O=Cc1cn(C[C@@](O)(Cn2cncn2)c2ccc(Cl)cc2Cl)c2ccccc12`, the MIC was > 100 µg/mL in the assay with Aspergillus fumigatus and 0.045 µg/mL (≈ 0.108 µM) against Candida albicans.
For `CCOC(=O)Cc1cn(C[C@@](O)(Cn2cncn2)c2ccc(Cl)cc2Cl)c2ccccc12`, the MIC was > 100 µg/mL against Aspergillus fumigatus and 0.006 µg/mL (≈ 0.0127 µM) in the assay on Candida albicans.
Regarding `CCOC(=O)CCc1cn(C[C@@](O)(Cn2cncn2)c2ccc(Cl)cc2Cl)c2ccccc12`, the MIC is > 100 µg/mL with Aspergillus fumigatus and 0.33 µg/mL (≈ 0.677 µM) in the assay on Candida albicans.
With `O=C1CCCc2c1ccn2C[C@@](O)(Cn1cncn1)c1ccc(Cl)cc1Cl`, the figures for the MIC in the assay on Aspergillus fumigatus and in the assay with Candida albicans were > 100 µg/mL and 0.07 µg/mL (≈ 0.173 µM), respectively.
For `OC(Cn1cncn1)(Cn1nc2ccccc2n1)c1ccc(F)cc1F` (stereo unspecified) the same measures were > 100 µg/mL and > 0.036 µg/mL.
On to `C[C@@H]1[C@H](O)[C@@H](C)/C=C/C=C/C=C/C=C/C=C/C=C/C=C/[C@H](O[C@@H]2O[C@H](C)[C@@H](O)[C@H](N)[C@@H]2O)C[C@@H]2O[C@](O)(C[C@@H](O)C[C@@H](O)[C@H](O)CC[C@@H](O)C[C@@H](O)CC(=O)O[C@H]1C)C[C@H](O)[C@H]2C(=O)O` [AMPHOTERICIN B], for which the MIC in the assay on Aspergillus fumigatus came to 0.14 µg/mL (≈ 0.152 µM); against Candida albicans, 0.12 µg/mL (≈ 0.13 µM).
In the assay on Candida albicans, `OC(Cn1cncn1)(Cn1cncn1)c1ccc(F)cc1F` [FLUCONAZOLE] displayed an MIC of 0.02 µg/mL (≈ 0.0653 µM).
Take `CCC(C)n1ncn(-c2ccc(N3CCN(c4ccc(OCC5COC(Cn6cncn6)(c6ccc(Cl)cc6Cl)O5)cc4)CC3)cc2)c1=O` (stereo unspecified) [ITRACONAZOLE]: the MIC in the assay on Aspergillus fumigatus was 0.5 µg/mL (≈ 0.709 µM).
